Results taken from US9346798B2, “Dihydrobenzoxazine and tetrahydroquinoxaline sodium channel inhibitors” (AMGEN INC., priority 2012, dated 2016).

What was measured:
Type in all cases: cell-based
Nav 1.5 = Nav 1.5 (Homo sapiens (Human), UniProt Q14524); assay: Nav 1.5 in vitro assay, IonWorks Quattro (IWQ) population patch-clamp; settings: HEK 293 cells stably transfected with Nav 1.5; 26th pulse to -20 mV
Nav 1.7 [1] = target: T1, Nav 1.7 (Homo sapiens (Human), UniProt Q15858); assay: Nav 1.7 in vitro assay, IonWorks Quattro (IWQ) population patch-clamp; settings: HEK 293 cells stably transfected with Nav 1.7; 26th pulse to -20 mV
Nav 1.7 [2] = target: T1, Nav 1.7; assay: Nav 1.7 in vitro PX assay, PatchXpress whole cell voltage clamp; settings: HEK 293 cells stably transfected with human Nav1.7; for IC50: partially inactivated state (20 to 50% inactivation)
In short: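 HEK293 cells stably expressing human Nav1.7, whole-cell voltage clamp at a holding potential giving 20–50% inactivation; currents elicited by 20 msec pulses to −10 mV at 0.1 Hz.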

Nav 1.5, sequence (Q14524 whole entry): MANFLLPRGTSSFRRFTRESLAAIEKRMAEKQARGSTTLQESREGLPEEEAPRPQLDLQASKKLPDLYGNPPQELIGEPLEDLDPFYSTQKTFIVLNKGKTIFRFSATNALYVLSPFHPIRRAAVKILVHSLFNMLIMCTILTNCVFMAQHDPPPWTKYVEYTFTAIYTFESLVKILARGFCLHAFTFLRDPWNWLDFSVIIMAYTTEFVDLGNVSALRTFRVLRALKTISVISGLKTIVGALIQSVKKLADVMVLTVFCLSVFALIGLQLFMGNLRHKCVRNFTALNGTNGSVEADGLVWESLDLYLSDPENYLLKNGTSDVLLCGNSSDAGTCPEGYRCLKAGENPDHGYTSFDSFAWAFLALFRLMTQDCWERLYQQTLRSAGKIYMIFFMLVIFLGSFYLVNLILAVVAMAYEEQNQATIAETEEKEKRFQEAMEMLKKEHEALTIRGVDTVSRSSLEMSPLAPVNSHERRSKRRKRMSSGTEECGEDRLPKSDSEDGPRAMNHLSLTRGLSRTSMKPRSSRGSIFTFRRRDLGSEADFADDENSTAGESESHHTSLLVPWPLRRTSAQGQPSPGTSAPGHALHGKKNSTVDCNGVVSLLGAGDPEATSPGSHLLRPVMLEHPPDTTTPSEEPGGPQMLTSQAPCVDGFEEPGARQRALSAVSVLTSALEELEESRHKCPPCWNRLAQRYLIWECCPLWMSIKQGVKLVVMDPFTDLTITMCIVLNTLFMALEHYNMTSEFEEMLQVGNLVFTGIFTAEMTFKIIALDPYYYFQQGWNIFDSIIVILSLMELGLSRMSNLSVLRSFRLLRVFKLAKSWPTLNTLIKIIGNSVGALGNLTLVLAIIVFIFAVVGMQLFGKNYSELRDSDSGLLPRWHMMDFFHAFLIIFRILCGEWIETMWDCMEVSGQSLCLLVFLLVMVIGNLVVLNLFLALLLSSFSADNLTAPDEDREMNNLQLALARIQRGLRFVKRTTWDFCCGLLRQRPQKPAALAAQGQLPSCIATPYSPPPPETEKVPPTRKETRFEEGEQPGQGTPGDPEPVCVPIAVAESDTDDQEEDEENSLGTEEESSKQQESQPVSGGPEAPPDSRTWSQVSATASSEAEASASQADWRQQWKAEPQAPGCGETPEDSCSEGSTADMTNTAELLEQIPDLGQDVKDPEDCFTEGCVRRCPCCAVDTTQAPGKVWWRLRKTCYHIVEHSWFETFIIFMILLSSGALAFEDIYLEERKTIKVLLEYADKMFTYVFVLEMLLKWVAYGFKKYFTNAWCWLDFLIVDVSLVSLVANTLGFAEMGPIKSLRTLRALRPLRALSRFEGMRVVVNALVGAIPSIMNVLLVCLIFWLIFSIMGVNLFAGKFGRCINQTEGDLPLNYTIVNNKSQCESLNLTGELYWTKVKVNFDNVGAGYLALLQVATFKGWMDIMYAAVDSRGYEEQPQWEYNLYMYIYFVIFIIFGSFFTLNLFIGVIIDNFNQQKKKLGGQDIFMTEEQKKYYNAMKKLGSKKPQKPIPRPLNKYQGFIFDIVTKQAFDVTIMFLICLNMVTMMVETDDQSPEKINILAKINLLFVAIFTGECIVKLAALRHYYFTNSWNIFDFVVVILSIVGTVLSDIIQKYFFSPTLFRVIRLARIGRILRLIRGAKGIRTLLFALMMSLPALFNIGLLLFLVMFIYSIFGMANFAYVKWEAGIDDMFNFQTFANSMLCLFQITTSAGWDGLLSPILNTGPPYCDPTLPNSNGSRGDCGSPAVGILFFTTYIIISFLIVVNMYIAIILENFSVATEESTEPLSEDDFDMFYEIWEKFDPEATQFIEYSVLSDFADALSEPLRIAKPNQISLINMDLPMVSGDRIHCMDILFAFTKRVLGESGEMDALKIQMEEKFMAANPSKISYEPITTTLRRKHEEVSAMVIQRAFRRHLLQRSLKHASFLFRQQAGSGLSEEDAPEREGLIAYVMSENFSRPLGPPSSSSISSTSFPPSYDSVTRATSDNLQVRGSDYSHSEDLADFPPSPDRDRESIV
T1 sequence (Q15858 whole entry): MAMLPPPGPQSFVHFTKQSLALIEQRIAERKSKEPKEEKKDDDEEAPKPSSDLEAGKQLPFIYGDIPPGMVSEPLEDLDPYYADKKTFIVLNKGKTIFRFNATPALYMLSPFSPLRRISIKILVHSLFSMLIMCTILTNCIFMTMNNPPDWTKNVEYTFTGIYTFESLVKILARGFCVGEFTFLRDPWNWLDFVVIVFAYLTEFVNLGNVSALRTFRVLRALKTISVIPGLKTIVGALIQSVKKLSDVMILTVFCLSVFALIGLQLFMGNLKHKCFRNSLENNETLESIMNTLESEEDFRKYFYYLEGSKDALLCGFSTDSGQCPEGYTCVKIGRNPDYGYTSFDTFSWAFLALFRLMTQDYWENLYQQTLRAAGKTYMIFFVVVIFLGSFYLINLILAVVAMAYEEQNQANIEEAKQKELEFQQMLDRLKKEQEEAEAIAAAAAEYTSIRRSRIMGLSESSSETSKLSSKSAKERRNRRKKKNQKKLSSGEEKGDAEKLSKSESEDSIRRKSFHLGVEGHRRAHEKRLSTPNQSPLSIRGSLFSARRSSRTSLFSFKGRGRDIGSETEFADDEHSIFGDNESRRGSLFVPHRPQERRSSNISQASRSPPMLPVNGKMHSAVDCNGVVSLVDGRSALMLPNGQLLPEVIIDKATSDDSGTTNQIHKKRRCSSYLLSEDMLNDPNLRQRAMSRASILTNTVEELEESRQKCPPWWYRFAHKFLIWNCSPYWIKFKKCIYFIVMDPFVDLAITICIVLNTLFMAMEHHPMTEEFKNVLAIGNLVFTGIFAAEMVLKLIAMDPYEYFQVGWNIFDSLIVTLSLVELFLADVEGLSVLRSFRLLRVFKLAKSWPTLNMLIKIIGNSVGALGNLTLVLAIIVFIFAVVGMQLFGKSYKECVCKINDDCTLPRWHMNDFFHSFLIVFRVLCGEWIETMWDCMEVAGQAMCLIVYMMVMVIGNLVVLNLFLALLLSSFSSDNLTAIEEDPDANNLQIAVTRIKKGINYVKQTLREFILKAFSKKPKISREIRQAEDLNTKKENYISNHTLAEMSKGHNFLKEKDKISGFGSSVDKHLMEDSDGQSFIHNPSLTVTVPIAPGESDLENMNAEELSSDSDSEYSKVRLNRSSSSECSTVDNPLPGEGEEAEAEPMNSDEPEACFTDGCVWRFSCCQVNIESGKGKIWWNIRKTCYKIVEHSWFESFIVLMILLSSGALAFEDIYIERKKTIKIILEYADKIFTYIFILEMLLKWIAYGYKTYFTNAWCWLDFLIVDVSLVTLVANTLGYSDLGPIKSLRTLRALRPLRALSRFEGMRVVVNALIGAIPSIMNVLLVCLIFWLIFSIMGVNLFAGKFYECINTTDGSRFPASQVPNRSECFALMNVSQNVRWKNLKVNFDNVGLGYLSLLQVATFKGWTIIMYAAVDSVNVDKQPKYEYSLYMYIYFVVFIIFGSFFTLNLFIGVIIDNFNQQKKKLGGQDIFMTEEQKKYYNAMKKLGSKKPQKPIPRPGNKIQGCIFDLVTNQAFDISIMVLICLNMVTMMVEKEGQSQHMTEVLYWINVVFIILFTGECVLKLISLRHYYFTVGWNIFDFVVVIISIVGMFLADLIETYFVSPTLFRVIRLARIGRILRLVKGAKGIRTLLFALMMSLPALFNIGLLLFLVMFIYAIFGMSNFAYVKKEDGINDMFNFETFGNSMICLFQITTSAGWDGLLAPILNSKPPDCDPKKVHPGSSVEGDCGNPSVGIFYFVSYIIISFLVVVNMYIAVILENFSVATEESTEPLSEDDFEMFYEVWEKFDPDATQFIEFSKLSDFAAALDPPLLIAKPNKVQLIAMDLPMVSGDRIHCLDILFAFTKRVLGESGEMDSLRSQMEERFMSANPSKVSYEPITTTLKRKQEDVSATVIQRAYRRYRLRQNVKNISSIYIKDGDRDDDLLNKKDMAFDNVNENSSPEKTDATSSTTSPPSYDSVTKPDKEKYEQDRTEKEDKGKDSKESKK

Row | SMILES | IC50 (Nav 1.7 [1]) [µM] | IC50 (Nav 1.7 [2]) [µM] | IC50 (Nav 1.5) [µM] | inhibition at 4.9 µM (Nav 1.7 [2]; HEK293, values marked *, 4.9 μM, read-out: Nav 1.7 PX percent inhibition at 4.9 μM) [%]
1 | O=S(=O)(Nc1nccs1)c1ccc2c(c1)OCCN2c1ccc2ncccc2c1 [Example 66, 4-(Quinolin-6-Yl)-N-(Thiazol-2-Yl)-3,4-Dihydro-2H-Benzo[B][1,4]Oxazine-7-Sulfonamide 2,2,2-Trifluoroacetate] | 3.73 | – | > 10 | 22.8
2 | O=S(=O)(Nc1ncns1)c1ccc2c(c1)OCCN2c1ccc(C(F)(F)F)cc1-c1cncnc1 [Example 23, 4-(2-(Pyrimidin-5-Yl)-4-(Trifluoromethyl)Phenyl)-N-(1,2,4-Thiadiazol-5-Yl)-3,4-Dihydro-2H-Benzo[B][1,4]Oxazine-7-Sulfonamide] | 0.0298 | 0.659 | 5.41 | –
3 | O=S(=O)(Nc1ncns1)c1ccc2c(c1)OCCN2c1cccc(OC(F)(F)F)c1 [Example 35, N-(1,2,4-Thiadiazol-5-Yl)-4-(3-(Trifluoromethoxy)Phenyl)-3,4-Dihydro-2H-Benzo[B][1,4]Oxazine-7-Sulfonamide] | 0.0435 | 0.138 | > 10 | –
4 | COc1ccc(N2CCOc3cc(S(=O)(=O)Nc4ncns4)ccc32)cc1 [Example 37, 4-(4-Methoxyphenyl)-N-(1,2,4-Thiadiazol-5-Yl)-3,4-Dihydro-2H-Benzo[B][1,4]Oxazine-7-Sulfonamide] | 0.207 | 2.2 | > 10 | –
5 | O=S(=O)(Nc1nccs1)c1ccc2c(c1)OCCN2c1ccc(C(F)(F)F)cc1CO [Example 206, 4-(2-(hydroxymethyl)-4-(trifluoromethyl)phenyl)-N-(thiazol-2-yl)-3,4-dihydro-2H-benzo[b][1,4]oxazine-7-sulfonamide] | 0.0315 | 0.174 | 1.14 | –

Further compounds by falling IC50 (Nav 1.7 [1]), results first:

Row | IC50 (Nav 1.7 [1]) [µM] | IC50 (Nav 1.7 [2]) [µM] | SMILES | IC50 (Nav 1.5) [µM] | inhibition at 4.9 µM (Nav 1.7 [2]; HEK293, values marked *, 4.9 μM, read-out: Nav 1.7 PX percent inhibition at 4.9 μM) [%]
6 | 1.31 | 23.3 | COc1cncc(N2CCOc3cc(S(=O)(=O)Nc4nccs4)ccc32)c1 [Example 131, 4-(5-Methoxypyridin-3-yl)-N-(thiazol-2-yl)-3,4-dihydro-2H-benzo[b][1,4]oxazine-7-sulfonamide] | > 10 | –
7 | 0.121 | 1.54 | Cn1nccc1-c1cc(C(F)(F)F)ccc1N1CCOc2cc(S(=O)(=O)Nc3nccs3)ccc21 [Example 42, 4-(2-(1-Methyl-1H-Pyrazol-5-Yl)-4-(Trifluoromethyl)Phenyl)-N-(Thiazol-2-Yl)-3,4-Dihydro-2H-Benzo[B][1,4]Oxazine-7-Sulfonamide] | > 10 | –
8 | 0.0115 | 0.585 | O=S(=O)(Nc1nccs1)c1ccc2c(c1)OCCN2c1ccc(C(F)(F)F)cc1-c1cncnc1 [Example 54, 4-(2-(Pyrimidin-5-Yl)-4-(Trifluoromethyl)Phenyl)-N-(Thiazol-2-Yl)-3,4-Dihydro-2H-Benzo[B][1,4]Oxazine-7-Sulfonamide 2,2,2-Trifluoroacetate] | 0.731 | –
